According to the supplement of paper PMC8612539:
≈ marks a conversion by molar mass, not a printed value.

Columns and labels:
Mannheimia haemolytica = experiment: minimum inhibitory concentration (MIC)
Description: (§1)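 Broth microdilution MIC (Sensititre BOPO7F bovine plate, CLSI methods) of 19 antimicrobials against field isolates of P. multocida, M. haemolytica, H. somni (deep nasopharyngeal swabs) and E. coli, Enterococcus spp. (rectal swabs) from weaned dairy heifers. Incubation 16-24 h at 35 C. MIC is the lowest concentration preventing visible growth. Values with <= or > lie at the tested range limits. Trimethoprim-sulfamethoxazole is given as the trimethoprim component of a 1:19 mixture.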

Enterococcus spp. = experiment: minimum inhibitory concentration (MIC)
Description: as §1

CCCN1C[C@H](C)[C@@H](O)[C@](C)(O)[C@@H](CC)OC(=O)[C@H](C)[C@@H](O[C@H]2C[C@@](C)(OC)[C@@H](O)[C@H](C)O2)[C@H](C)[C@@H](O[C@@H]2O[C@H](C)C[C@H](N(C)C)[C@H]2O)[C@](C)(O)C[C@H]1C [Gamithromycin]
minimum inhibitory concentration [µg/mL]
Settings	Enterococcus spp.	Mannheimia haemolytica
isolate (source animal id): 2	≤ 1	–
isolate (source animal id): 8	–	≤ 1
isolate (source animal id): 13	–	≤ 1
isolate (source animal id): 18	–	≤ 1
isolate (source animal id): 21	–	≤ 1
isolate (source animal id): 25	–	4 (≈ 5.15 µM)
isolate (source animal id): 27	–	4 (≈ 5.15 µM)
isolate (source animal id): 28	–	2 (≈ 2.57 µM)
isolate (source animal id): 30	–	≤ 1
isolate (source animal id): 31	–	2 (≈ 2.57 µM)
isolate (source animal id): 32	–	≤ 1
isolate (source animal id): 34	–	≤ 1
isolate (source animal id): 35	> 8	–
isolate (source animal id): 36	–	4 (≈ 5.15 µM)
isolate (source animal id): 37	–	4 (≈ 5.15 µM)
isolate (source animal id): 40	–	≤ 1
isolate (source animal id): 41	–	≤ 1
isolate (source animal id): 42	≤ 1	–
isolate (source animal id): 43	–	≤ 1
isolate (source animal id): 44	2 (≈ 2.57 µM)	–
isolate (source animal id): 46	–	4 (≈ 5.15 µM)
isolate (source animal id): 49	–	2 (≈ 2.57 µM)
isolate (source animal id): 50	–	4 (≈ 5.15 µM)
isolate (source animal id): 51	–	≤ 1
isolate (source animal id): 52	–	≤ 1
isolate (source animal id): 53	–	≤ 1
isolate (source animal id): 55	–	≤ 1
isolate (source animal id): 56	–	≤ 1
isolate (source animal id): 57	–	> 8
isolate (source animal id): 79	2 (≈ 2.57 µM)	–
isolate (source animal id): 88	≤ 1	–
isolate (source animal id): 91	≤ 1	–
isolate (source animal id): 92	2 (≈ 2.57 µM)	–
isolate (source animal id): 100	–	2 (≈ 2.57 µM)
isolate (source animal id): 103	–	4 (≈ 5.15 µM)
isolate (source animal id): 107	–	2 (≈ 2.57 µM)
isolate (source animal id): 108	–	2 (≈ 2.57 µM)
isolate (source animal id): 111	≤ 1	–
isolate (source animal id): 112	–	> 8
isolate (source animal id): 113	–	> 8
isolate (source animal id): 121	–	4 (≈ 5.15 µM)
isolate (source animal id): 122	> 8	8 (≈ 10.3 µM)
isolate (source animal id): 123	≤ 1	> 8
isolate (source animal id): 126	–	> 8
isolate (source animal id): 133	≤ 1	> 8
isolate (source animal id): 135	–	> 8
isolate (source animal id): 138	–	> 8
isolate (source animal id): 141	–	> 8
isolate (source animal id): 142	–	> 8
isolate (source animal id): 145	–	2 (≈ 2.57 µM)
isolate (source animal id): 149	–	2 (≈ 2.57 µM)
isolate (source animal id): 151	–	2 (≈ 2.57 µM)
isolate (source animal id): 152	–	4 (≈ 5.15 µM)
isolate (source animal id): 154	–	≤ 1
isolate (source animal id): 158	> 8	–
isolate (source animal id): 159	–	> 8
isolate (source animal id): 162	–	> 8
isolate (source animal id): 168	≤ 1	–
isolate (source animal id): 169	≤ 1	–
isolate (source animal id): 170	–	2 (≈ 2.57 µM)
isolate (source animal id): 171	≤ 1	≤ 1
isolate (source animal id): 172	–	2 (≈ 2.57 µM)
isolate (source animal id): 173	–	2 (≈ 2.57 µM)
isolate (source animal id): 175	> 8	–
isolate (source animal id): 177	≤ 1	–
isolate (source animal id): 179	–	≤ 1
isolate (source animal id): 180	–	≤ 1
isolate (source animal id): 181	≤ 1	–
isolate (source animal id): 182	≤ 1	–
isolate (source animal id): 183	2 (≈ 2.57 µM)	≤ 1
isolate (source animal id): 186	–	≤ 1
isolate (source animal id): 187	≤ 1	2 (≈ 2.57 µM)
isolate (source animal id): 188	–	≤ 1
isolate (source animal id): 190	≤ 1	≤ 1
isolate (source animal id): 191	–	2 (≈ 2.57 µM)
isolate (source animal id): 192	–	≤ 1
isolate (source animal id): 194	≤ 1	–
isolate (source animal id): 195	≤ 1	–
isolate (source animal id): 197	≤ 1	–
isolate (source animal id): 201	–	2 (≈ 2.57 µM)
isolate (source animal id): 202	–	2 (≈ 2.57 µM)
isolate (source animal id): 209	–	2 (≈ 2.57 µM)
isolate (source animal id): 211	≤ 1	2 (≈ 2.57 µM)
isolate (source animal id): 214	4 (≈ 5.15 µM)	–
isolate (source animal id): 220	–	2 (≈ 2.57 µM)
isolate (source animal id): 221	–	≤ 1
isolate (source animal id): 222	≤ 1	–
isolate (source animal id): 223	≤ 1	2 (≈ 2.57 µM)
isolate (source animal id): 228	8 (≈ 10.3 µM)	–
isolate (source animal id): 230	8 (≈ 10.3 µM)	–
isolate (source animal id): 233	–	2 (≈ 2.57 µM)
isolate (source animal id): 235	> 8	–
isolate (source animal id): 236	≤ 1	–
isolate (source animal id): 237	–	4 (≈ 5.15 µM)
isolate (source animal id): 239	4 (≈ 5.15 µM)	–
isolate (source animal id): 241	> 8	4 (≈ 5.15 µM)
isolate (source animal id): 244	≤ 1	–
isolate (source animal id): 246	≤ 1	–
isolate (source animal id): 247	> 8	–
isolate (source animal id): 250	≤ 1	–
isolate (source animal id): 252	> 8	8 (≈ 10.3 µM)
isolate (source animal id): 253	–	8 (≈ 10.3 µM)
isolate (source animal id): 259	–	> 8
isolate (source animal id): 260	–	8 (≈ 10.3 µM)
isolate (source animal id): 262	–	4 (≈ 5.15 µM)
isolate (source animal id): 268	> 8	–
isolate (source animal id): 282	≤ 1	> 8
isolate (source animal id): 285	> 8	–
isolate (source animal id): 287	–	8 (≈ 10.3 µM)
isolate (source animal id): 288	–	≤ 1
isolate (source animal id): 289	≤ 1	–
isolate (source animal id): 290	≤ 1	–
isolate (source animal id): 291	–	≤ 1
isolate (source animal id): 293	–	8 (≈ 10.3 µM)
isolate (source animal id): 296	≤ 1	–
isolate (source animal id): 298	≤ 1	> 8
isolate (source animal id): 299	–	> 8
isolate (source animal id): 300	–	≤ 1
isolate (source animal id): 301	≤ 1	–
isolate (source animal id): 302	–	> 8
isolate (source animal id): 304	–	> 8
isolate (source animal id): 306	–	≤ 1
isolate (source animal id): 308	–	≤ 1
isolate (source animal id): 309	–	≤ 1
isolate (source animal id): 310	> 8	–
isolate (source animal id): 313	–	> 8
isolate (source animal id): 318	–	8 (≈ 10.3 µM)
isolate (source animal id): 320	≤ 1	≤ 1
isolate (source animal id): 321	–	> 8
isolate (source animal id): 323	–	> 8
isolate (source animal id): 324	–	8 (≈ 10.3 µM)
isolate (source animal id): 326	–	> 8
isolate (source animal id): 328	–	> 8
isolate (source animal id): 329	–	> 8
isolate (source animal id): 331	≤ 1	–
isolate (source animal id): 333	≤ 1	> 8
isolate (source animal id): 335	–	8 (≈ 10.3 µM)
isolate (source animal id): 338	–	8 (≈ 10.3 µM)
isolate (source animal id): 341	> 8	–
